According to US20050124694A1, “Method of accelerating metabolism of alcohol” (priority 2003, published 2005):

Assay: Breath sample analysis for alcohol (BAC) in volunteers after 5 glasses of wine
Type: in vivo, human
Conditions: for BAC AFTER 30 MIN.: 30 min after 5 glasses of wine on an empty stomach together with a fifty gram dose; for BAC AFTER 30 MIN. / BAC AFTER 60 MIN / BAC AFTER 90 MIN / BAC AFTER 120 MIN / BAC AFTER 150 MIN / BAC AFTER 180 MIN / BAC AFTER 210 MIN / BAC AFTER 240 MIN: breath sample; for BAC AFTER 60 MIN: 60 min after 5 glasses of wine on an empty stomach together with a fifty gram dose; for BAC AFTER 90 MIN: 90 min after 5 glasses of wine on an empty stomach together with a fifty gram dose; for BAC AFTER 120 MIN: 120 min after 5 glasses of wine on an empty stomach together with a fifty gram dose; for BAC AFTER 150 MIN: 150 min after 5 glasses of wine on an empty stomach together with a fifty gram dose; for BAC AFTER 180 MIN: 180 min after 5 glasses of wine on an empty stomach together with a fifty gram dose; for BAC AFTER 210 MIN: 210 min after 5 glasses of wine on an empty stomach together with a fifty gram dose; for BAC AFTER 240 MIN: 240 min after 5 glasses of wine on an empty stomach together with a fifty gram dose; for Effect on the consumer's BAC as measured by the test, compared with no administration: fifty gram dose with 5 glasses of wine
Experimental: A commercially available instrument was used to analyze breath samples provided by volunteers for alcohol. TEN volunteers each consumed 5 GLASSES OF WINE on an empty stomach together with a FIFTY GRAM dose of one or more compounds of formula (I) as tabulated below. A control group of volunteers WAS not given any of the compound. The volunteers then provided _[…] breath samples for analysis at intervals of 30 minutes. THE COMPOUNDS GIVEN AND THE SAC LEVELS READ AT EACH SAMPLING ARE TABULATED BELOW

| Compound | BAC AFTER 30 MIN. | BAC AFTER 60 MIN | BAC AFTER 90 MIN | BAC AFTER 120 MIN | BAC AFTER 150 MIN | BAC AFTER 180 MIN | BAC AFTER 210 MIN | BAC AFTER 240 MIN | Effect on the consumer's BAC as measured by the test, compared with no administration |
| --- | --- | --- | --- | --- | --- | --- | --- | --- | --- |
| NC(=O)CC[C@H](N)C(=O)O [III] | 0.09% | 0.08% | 0.08% | 0.07% | 0.07% | 0.05% | 0.04% | 0.03% | helps to diminish the consumer's BAC as measured by the test more rapidly than without such administration |
| CC(=O)O[C@H](CC(=O)[O-])C[N+](C)(C)C [compound II] | 0.10% | 0.09% | 0.08% | 0.08% | 0.07% | 0.06% | 0.04% | 0.03% | helps to diminish the consumer's BAC as measured by the test more rapidly than without such administration |
